Laboratory results: ChEMBL document CHEMBL1201862, “PubChem BioAssay data set” (2004)
Calls of active or inactive are those of the source.

Assays:
Beta-galactosidase = Beta-galactosidase (Escherichia coli, UniProt Q8VNN2); experiment: PubChem AID 485352; type: functional
[1] = CCR5-tropic HIV-1 fusion blockers – cell-based, CCR5-tropic Env, dose response (AID 2279); type: functional
[2] = molecular target: Type-1 angiotensin II receptor (Homo sapiens, UniProt P30556); experiment: antagonism of angiotensin II type 1 receptor – cell-based, uHTS hits, selectivity assay for APJ receptor antagonist project, dose response (AID 463214); type: functional;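 note: antagonist potency against angiotensin II stimulated AT1 response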
Sequence of Type-1 angiotensin II receptor (P30556 whole entry): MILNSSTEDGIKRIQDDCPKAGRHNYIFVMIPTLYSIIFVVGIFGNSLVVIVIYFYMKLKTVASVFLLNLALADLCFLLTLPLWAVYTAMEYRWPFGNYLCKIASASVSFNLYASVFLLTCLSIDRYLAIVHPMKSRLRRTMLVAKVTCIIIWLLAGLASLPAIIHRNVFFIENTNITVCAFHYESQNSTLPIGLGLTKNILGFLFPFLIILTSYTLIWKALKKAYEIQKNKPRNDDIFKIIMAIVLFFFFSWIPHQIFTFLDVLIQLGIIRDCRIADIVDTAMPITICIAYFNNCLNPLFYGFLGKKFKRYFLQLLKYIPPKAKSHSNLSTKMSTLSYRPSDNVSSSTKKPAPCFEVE

INS1 = experiment: INS-1E survival protection against cytokine death – cell-based, luminescence, retest, dose response (AID 449756); type: functional; details: Rattus norvegicus;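 note: cell death triggered by IL-1 beta plus TNF-alpha plus IFN-gamma mixture; protective hits raise ATP signal compared with cytokine alone wells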
[3] = molecular target: T1, Apoptotic protease-activating factor 1 (Homo sapiens, UniProt O14727); type: functional
T1 sequence (O14727 whole entry): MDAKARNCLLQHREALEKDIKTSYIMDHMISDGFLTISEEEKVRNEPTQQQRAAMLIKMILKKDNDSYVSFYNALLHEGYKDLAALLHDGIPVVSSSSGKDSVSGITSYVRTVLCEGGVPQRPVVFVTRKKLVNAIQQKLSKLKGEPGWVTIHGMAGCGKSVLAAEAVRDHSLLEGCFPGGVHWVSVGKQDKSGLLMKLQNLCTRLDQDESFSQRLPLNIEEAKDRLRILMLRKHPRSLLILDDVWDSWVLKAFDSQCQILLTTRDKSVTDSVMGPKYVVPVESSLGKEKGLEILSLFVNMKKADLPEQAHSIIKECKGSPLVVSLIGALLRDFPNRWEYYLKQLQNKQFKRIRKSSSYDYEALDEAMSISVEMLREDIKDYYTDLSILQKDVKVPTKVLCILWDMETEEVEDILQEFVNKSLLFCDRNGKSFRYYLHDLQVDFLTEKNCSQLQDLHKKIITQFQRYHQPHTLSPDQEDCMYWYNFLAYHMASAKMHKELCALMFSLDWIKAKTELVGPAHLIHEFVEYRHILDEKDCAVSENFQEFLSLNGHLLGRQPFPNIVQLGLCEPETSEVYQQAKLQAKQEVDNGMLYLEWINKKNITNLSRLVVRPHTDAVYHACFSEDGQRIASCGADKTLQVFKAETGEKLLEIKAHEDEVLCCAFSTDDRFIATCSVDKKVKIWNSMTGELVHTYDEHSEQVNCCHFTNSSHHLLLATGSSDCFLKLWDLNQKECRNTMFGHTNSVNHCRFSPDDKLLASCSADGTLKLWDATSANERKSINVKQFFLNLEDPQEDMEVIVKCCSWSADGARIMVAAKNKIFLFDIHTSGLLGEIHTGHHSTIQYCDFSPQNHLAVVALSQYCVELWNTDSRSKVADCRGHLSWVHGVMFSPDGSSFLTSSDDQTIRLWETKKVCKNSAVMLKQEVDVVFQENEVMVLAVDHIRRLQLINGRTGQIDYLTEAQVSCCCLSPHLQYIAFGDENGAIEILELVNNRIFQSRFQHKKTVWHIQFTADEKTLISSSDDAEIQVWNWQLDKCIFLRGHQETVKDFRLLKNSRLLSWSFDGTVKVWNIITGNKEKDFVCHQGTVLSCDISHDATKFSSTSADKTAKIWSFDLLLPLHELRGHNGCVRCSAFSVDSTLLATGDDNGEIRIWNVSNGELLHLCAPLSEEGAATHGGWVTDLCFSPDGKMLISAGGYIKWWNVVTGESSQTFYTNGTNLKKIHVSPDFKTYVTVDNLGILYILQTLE

[4] = Trypanosoma cruzi growth suppression in host cells – NIH3T3 host cells, beta-gal luminescence, confirmation (AID 2044); type: functional, cell-based;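 note: intracellular parasites grown in NIH/3T3 mouse fibroblasts as host cells; luminescent beta-galactosidase reporter signal from transgenic T. cruzi replicating inside host cells; inhibitors lower the luminescence signal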
A-375 = experiment: proliferation inhibition in MITF-low A375 cells – cell-based, cherry-pick samples, set 2, counter-screen for MITF modulator project, dose response (AID 540335); type: functional; details: Homo sapiens
[5] = NIH3T3 cell viability loss – ATP luminescence, mouse fibroblasts, counter-screen, dose response (AID 2010); type: functional, cell-based;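 note: cells exposed to compound for about 90 hours before reading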
[6] = Luminescence-based dose response cell-based high throughput screening assay for cytotoxic compounds using the IEC-6 intestinal epithelial cell line. [Related pubchem assays: 1858 (Summary AID.), 1825 (Counterscreen.), 1907 (Confirmation screen.)]; type: functional
[7] = molecular target: Microphthalmia-associated transcription factor (Homo sapiens, UniProt O75030); experiment: reducers of TRPM1 reporter luminescence, concentration series – cell-based, SK-MEL-5, cherry-picked, set 3, MITF inhibitor project, dose response (AID 493073); type: functional;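 note: SK-MEL-5 melanoma cells with luciferase driven by the MITF target TRPM1 promoter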
[8] = molecular target: T2, Histone-lysine N-methyltransferase NSD2 (Homo sapiens, UniProt O96028); type: biochemical
T2 sequence (O96028 whole entry): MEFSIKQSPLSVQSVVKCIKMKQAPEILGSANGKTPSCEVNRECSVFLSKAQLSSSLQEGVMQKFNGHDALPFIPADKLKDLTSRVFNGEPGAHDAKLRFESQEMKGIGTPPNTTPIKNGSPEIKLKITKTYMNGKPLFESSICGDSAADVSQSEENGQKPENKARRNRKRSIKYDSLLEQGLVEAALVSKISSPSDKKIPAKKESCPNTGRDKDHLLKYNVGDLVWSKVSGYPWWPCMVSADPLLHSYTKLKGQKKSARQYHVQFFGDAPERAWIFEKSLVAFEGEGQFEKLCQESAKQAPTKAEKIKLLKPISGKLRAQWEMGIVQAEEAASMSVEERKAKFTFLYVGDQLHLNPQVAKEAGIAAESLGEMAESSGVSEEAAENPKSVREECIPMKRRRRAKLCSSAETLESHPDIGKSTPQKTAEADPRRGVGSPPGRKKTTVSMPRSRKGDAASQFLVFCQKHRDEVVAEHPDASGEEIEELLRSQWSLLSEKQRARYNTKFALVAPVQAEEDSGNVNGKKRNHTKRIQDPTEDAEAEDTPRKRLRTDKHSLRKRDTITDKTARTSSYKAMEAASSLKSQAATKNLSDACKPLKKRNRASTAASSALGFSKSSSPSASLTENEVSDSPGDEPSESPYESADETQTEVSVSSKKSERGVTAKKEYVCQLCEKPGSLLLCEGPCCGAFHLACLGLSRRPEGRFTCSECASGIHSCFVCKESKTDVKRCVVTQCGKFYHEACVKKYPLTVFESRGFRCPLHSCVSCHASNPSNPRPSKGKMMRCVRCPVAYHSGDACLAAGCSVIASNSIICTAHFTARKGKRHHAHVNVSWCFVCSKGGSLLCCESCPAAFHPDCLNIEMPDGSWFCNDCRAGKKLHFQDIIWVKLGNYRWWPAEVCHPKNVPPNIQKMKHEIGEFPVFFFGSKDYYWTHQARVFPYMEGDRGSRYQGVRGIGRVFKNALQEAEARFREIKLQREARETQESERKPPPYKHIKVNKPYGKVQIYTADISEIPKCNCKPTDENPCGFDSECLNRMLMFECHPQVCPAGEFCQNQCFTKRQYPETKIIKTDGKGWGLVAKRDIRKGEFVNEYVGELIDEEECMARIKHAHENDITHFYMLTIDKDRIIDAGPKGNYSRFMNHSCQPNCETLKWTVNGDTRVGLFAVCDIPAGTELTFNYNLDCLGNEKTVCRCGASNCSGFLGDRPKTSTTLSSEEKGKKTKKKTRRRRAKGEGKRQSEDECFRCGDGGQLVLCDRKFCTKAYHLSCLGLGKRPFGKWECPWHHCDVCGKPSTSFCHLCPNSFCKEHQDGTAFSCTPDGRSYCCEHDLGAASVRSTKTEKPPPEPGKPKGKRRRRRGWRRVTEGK

[9] = molecular target: T3, Calpain-2 catalytic subunit (Sus scrofa, UniProt P43367); experiment: m-calpain protease blockers, concentration series – biochemical, fluorogenic peptide substrate, dose response (AID 1420); type: functional
T3 sequence (P43367 whole entry): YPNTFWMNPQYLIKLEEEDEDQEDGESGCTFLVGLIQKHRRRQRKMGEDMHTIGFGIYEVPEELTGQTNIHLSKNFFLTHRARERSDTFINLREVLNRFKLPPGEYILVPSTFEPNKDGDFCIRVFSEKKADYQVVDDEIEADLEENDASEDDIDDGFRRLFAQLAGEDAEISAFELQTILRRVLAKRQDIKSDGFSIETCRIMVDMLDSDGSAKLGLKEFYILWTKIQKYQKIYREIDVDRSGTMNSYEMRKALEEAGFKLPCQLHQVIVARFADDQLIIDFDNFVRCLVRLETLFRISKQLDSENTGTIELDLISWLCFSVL

[10] = general cell-killing toxicity readout – plate reader, dry powder samples, cytotoxicity control for PAX8 inhibitor project, dose response (AID 743021); type: functional, cell-based
[11] = blockade of melanocortin 4 receptor signaling – cell-based, plate reader, cherry pick, counter-screen for LGR2 antagonist project, dose response (AID 743444); type: functional;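 note: transfected HEK 293 cells stimulated with alpha-MSH peptide; potency of inhibitors of the alpha-MSH evoked signal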
[12] = blockers of bursicon-stimulated LGR2 cAMP reporter – cell-based, HEK293, CRE-luciferase reporter, cherry pick, set 2, dose response (AID 743343); type: functional;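 note: transfected cells were stimulated with diluted bursicon conditioned medium after compound addition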
Exodeoxyribonuclease V = Exodeoxyribonuclease V (Escherichia coli (strain K12), UniProt P04993+P07648+P08394); experiment: RecBCD inhibition via phage-restricted bacterial growth – absorbance, V66 E. coli, mutant T4 phage, counter-screen for AddAB inhibitor project, dose response (AID 492957); type: functional, cell-based, Escherichia coli str. K-12 substr. MG1655
Sequence of Exodeoxyribonuclease V (P04993 whole entry): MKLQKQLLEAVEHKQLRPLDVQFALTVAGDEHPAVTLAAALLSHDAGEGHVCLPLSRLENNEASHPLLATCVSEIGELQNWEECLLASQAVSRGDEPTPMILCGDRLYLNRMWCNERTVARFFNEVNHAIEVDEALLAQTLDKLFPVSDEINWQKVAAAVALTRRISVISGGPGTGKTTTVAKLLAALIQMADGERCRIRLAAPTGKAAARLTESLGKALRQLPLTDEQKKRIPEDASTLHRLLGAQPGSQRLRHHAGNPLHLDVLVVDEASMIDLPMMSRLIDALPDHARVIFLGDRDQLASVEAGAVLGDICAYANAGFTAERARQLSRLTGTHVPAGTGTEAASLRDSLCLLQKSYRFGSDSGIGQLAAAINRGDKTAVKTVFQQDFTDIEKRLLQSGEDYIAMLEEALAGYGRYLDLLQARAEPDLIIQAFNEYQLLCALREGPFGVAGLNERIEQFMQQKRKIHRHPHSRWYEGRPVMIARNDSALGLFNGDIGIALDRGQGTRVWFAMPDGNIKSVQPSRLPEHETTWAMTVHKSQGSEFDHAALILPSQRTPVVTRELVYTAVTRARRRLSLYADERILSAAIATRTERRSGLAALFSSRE
Sequence of Exodeoxyribonuclease V (P07648 whole entry): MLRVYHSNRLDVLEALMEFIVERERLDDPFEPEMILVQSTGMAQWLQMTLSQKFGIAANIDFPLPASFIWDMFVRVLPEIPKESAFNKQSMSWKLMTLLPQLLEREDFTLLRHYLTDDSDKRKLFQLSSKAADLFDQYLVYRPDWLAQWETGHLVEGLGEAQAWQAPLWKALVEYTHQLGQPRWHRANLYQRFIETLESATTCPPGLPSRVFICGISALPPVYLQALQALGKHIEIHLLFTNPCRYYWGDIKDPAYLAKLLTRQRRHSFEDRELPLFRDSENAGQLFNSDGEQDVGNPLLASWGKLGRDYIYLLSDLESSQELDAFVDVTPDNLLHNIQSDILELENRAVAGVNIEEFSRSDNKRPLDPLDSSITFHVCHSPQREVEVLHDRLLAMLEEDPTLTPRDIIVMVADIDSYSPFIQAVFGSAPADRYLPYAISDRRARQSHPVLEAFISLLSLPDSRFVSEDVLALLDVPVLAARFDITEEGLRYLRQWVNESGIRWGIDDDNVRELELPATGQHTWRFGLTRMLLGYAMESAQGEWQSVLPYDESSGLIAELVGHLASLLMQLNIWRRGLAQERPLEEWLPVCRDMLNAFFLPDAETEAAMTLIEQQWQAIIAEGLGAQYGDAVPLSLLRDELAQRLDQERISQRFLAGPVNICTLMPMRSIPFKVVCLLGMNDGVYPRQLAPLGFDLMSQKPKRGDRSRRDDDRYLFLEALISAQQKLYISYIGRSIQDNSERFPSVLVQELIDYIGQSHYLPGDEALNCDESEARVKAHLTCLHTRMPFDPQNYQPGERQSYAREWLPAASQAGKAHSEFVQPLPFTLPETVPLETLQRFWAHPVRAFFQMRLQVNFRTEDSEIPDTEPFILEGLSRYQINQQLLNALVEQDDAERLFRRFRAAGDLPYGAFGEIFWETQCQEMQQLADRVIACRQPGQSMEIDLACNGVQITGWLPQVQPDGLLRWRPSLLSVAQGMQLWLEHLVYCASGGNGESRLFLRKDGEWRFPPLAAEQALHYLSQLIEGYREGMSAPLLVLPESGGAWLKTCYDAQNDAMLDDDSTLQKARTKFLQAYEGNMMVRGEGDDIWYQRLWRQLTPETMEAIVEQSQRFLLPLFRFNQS
Sequence of Exodeoxyribonuclease V (P08394 whole entry): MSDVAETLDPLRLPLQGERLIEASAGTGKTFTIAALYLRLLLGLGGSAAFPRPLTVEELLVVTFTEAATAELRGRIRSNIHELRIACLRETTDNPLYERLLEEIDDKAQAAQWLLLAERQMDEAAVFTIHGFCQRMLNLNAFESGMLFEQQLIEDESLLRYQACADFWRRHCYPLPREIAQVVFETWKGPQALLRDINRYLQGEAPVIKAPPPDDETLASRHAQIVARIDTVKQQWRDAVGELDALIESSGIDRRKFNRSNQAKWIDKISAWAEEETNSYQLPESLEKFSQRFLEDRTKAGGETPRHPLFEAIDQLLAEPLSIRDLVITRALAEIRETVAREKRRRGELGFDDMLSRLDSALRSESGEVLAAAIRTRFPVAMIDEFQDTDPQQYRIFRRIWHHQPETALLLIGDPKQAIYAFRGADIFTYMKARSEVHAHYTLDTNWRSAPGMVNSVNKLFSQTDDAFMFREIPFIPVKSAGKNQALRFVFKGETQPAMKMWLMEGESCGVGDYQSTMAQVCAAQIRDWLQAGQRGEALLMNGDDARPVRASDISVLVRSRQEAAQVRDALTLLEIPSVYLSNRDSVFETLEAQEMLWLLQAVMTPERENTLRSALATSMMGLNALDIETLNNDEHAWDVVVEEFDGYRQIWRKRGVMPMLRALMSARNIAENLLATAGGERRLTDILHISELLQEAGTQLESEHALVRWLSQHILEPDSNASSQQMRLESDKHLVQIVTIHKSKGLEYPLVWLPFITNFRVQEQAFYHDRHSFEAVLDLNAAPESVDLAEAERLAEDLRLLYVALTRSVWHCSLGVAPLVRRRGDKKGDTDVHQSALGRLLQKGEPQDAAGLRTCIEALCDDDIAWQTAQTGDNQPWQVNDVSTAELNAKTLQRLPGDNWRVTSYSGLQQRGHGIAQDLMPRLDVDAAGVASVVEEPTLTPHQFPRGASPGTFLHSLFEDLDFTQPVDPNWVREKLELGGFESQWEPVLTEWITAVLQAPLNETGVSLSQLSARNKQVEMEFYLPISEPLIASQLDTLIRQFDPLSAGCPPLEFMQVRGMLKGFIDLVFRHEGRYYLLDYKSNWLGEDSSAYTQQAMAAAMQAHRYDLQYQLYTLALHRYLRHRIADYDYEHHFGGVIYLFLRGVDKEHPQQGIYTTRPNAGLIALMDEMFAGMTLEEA

[13] = toxicity toward HepG2 liver cells – cell-based, plate reader, cherry-pick, antagonist series, cytotoxicity control, dose response (AID 743416); type: functional
[14] = HEK-293T viability loss after treatment – luminescence, T-cell screen hits, cytotoxicity control for TCR NF-kB inhibitor project, dose response (AID 489026); type: functional, cell-based;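 note: cells exposed to compound about 14 hours before the viability readout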
Paired box protein Pax-8 = Paired box protein Pax-8 (Homo sapiens, UniProt Q06710); experiment: PAX8 transcriptional activity inhibition in RMG-I – RMG-I cells, luciferase, cherry-pick, dose response (AID 687027); type: functional, cell-based;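 note: luciferase reporter driven by Pax8 target thyroperoxidase promoter measured by SteadyGlo luminescence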
[15] = molecular target: T4, Heat shock factor protein 1 (Mus musculus, UniProt P38532); experiment: decrease of HSF1-responsive luciferase luminescence – cell-based, NIH3T3, dose retest, confirmation (AID 2382); type: functional;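 note: NIH3T3 fibroblasts with HSF1-driven luciferase reporter stressed by proteasome inhibitor MG132; luminescence from HSF1-driven luciferase expression after 8 hours of MG132 stress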
T4 sequence (P38532 whole entry): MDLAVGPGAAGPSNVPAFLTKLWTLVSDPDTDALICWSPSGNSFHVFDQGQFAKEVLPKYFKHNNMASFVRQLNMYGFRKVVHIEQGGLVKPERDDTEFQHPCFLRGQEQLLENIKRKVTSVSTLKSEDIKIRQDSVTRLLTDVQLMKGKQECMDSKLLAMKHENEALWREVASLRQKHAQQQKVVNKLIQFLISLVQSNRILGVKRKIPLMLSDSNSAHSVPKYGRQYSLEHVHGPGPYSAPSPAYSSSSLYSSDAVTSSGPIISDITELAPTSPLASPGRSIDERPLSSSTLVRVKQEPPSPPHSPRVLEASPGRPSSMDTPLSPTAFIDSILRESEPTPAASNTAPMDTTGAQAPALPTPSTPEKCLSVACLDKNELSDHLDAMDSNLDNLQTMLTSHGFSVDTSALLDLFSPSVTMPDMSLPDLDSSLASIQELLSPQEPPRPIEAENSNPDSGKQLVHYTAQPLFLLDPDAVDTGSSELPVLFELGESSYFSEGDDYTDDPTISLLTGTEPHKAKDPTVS

Vero = experiment: cells; type: functional; details: Chlorocebus sabaeus
[16] = Counterscreen for AddAB inhibitors: absorbance-based bacterial cell-based high throughput dose response assay for inhibitors of bacterial viability. [Related pubchem assays (depositor defined):AID435030, AID449728, AID449731, AID488942, AID488955, AID488956]; type: functional
[17] = molecular target: Luciferin 4-monooxygenase (Photuris pensylvanica, UniProt Q27757); experiment: inhibition of Cell Titer Glo luciferase signal – biochemical, luminescence, cherry-picks, counter-screen for HSF-1 reporter inhibitor project, dose response (AID 588847)
Sequence of Luciferin 4-monooxygenase (Q27757 whole entry): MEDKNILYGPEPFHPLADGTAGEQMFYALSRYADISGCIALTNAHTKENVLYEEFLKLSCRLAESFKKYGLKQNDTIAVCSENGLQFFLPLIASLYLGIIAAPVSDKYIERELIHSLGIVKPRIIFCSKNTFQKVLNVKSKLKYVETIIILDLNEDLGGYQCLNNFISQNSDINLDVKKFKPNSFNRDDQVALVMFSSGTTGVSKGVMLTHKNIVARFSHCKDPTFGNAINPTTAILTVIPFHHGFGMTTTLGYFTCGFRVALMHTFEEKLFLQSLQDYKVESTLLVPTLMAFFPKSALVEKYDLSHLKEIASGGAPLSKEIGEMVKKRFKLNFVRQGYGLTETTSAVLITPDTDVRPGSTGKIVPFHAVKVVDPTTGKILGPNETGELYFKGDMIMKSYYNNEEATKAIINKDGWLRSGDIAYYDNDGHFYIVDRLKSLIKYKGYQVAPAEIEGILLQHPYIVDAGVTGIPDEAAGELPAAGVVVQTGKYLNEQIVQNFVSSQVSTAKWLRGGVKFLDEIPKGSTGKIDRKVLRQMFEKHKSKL

[18] = viability loss in HEK293 cells – cell-based, plate reader, cherry-picked samples, cytotoxicity control, dose response (AID 743446); type: functional
[19] = A549 cell cytotoxicity, dose response, cytotoxicity control, plate reader, cherry-pick, antagonist series (AID 743412); type: functional, cell-based

Sequence of Beta-galactosidase (Q8VNN2 whole entry, the tested form may be a part): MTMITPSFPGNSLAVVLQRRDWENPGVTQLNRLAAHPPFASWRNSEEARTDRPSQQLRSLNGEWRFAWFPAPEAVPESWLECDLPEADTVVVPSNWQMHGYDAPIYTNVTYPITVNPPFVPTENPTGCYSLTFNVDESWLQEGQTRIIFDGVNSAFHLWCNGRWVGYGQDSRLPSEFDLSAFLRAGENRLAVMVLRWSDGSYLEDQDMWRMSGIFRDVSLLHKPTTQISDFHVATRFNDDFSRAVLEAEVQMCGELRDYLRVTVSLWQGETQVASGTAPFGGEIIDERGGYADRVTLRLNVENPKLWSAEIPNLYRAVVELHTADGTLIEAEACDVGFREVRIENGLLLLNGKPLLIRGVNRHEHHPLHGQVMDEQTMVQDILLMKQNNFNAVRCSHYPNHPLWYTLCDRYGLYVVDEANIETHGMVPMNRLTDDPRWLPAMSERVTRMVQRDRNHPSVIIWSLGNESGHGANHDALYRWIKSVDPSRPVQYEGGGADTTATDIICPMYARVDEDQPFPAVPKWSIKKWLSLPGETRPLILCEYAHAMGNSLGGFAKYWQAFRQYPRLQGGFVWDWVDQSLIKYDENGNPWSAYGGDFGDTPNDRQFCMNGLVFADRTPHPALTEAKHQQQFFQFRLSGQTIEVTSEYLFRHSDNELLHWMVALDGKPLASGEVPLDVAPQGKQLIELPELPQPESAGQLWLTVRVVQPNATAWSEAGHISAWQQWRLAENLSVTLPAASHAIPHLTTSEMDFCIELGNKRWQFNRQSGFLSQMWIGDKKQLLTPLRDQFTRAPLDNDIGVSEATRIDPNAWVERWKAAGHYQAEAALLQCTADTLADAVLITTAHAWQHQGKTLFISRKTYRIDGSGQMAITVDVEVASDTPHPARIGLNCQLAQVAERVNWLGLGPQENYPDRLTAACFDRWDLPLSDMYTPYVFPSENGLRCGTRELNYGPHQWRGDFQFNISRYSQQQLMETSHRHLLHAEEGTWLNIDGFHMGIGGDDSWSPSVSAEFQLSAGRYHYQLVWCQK

## O=C(O)c1ccccc1N=Nc1c(O)[nH]c2ccc([N+](=O)[O-])cc12
Beta-galactosidase
  EC50: > 40 µM (inactive)
[1]
  IC50: 10.1 µM (active)
[2]
  IC50: > 40 µM (not active)

## CCN(CC)CCCNC1=C(Cl)C(=O)c2ccccc2C1=O
INS1
  AC50: 2.46 µM (active)
[3]
  IC50: 11.7 µM (active)
[4]
  EC50: 0.987 µM (active)
A-375
  AC50: 14.8 µM (active)
[5]
  EC50: 2.26 µM (active)
[6]
  IC50: 1.8 µM (active)
[7]
  AC50: 1.78 µM (active)
[8]
  AC50: 4.69 µM (active)
[9]
  IC50: 9.5 µM (not active)

## C(=N\Nc1nc2ccccc2s1)/c1ccccn1
[10]
  AC50: 9.34 µM (active)
[11]
  AC50: 0.229 µM (active)
[12]
  AC50: 0.148 µM (active)
Exodeoxyribonuclease V
  IC50: > 119 µM (inactive)
[13]
  AC50: 2.06 µM (active)
[14]
  IC50: > 80 µM (inactive)
Paired box protein Pax-8
  AC50: 3.32 µM (active)
[15]
  EC50: < 0.16 µM (active)
Vero
  CC50: 2.61 µM (active)
[16]
  IC50: > 119 µM (inactive)
[17]
  AC50: 0.836 µM (active)
[18]
  AC50: 3.72 µM (active)
[19]
  AC50: 2.02 µM (active)
